# Data: patent US9273043B2, “TRPV1 antagonists including dihydroxy substituent and uses thereof” (Purdue Pharma L.P., priority 2011, dated 2016)
# Marks after values point to notes of the source that are not given here.
# Test system: MIA-induced osteoarthritis pain
# Assay: MIA-induced osteoarthritis model, grip force test
# Type: in vivo, rat
# Conditions: rat MIA, grip force
# Source text: Osteoarthritis Pain: To assess the actions of a Compound of Formula (I) for the treatment or prevention of osteoarthritis pain, the rat monosodium iodo-acetate (MIA, i.e., sodium 2-iodoacetate) induced osteoarthritis model was used. Intra-articular injection of MIA causes joint degeneration characterized by osteolysis and swelling, with displacement of the patella, and reductions in bone mineral content and bone mineral density (Pomonis et al., “Development and pharmacological characterization of a rat model of osteoarthritis pain,” Pain 114: 339-346 (2005)). Under isoflurane anaesthesia, an intra-articular injection of 2 mg of MIA (Sigma-Aldrich) in 50 μl of saline was administered through the infrapatellar ligament of the knee joint of the right hind leg of the male, 6 week old Crl:CD(SD) rats. Control rats received an intra-articular injection of 50 μl of saline into the knee joint of the right hind leg. The left knee joint of all rats was untreated. Two weeks after MIA injection, rats were assessed for osteoarthritis pain related-behaviors immediately prior to and 1, 3, 5, 7, and 24 hours after oral drug-in-vehicle administration (for day 1) by determining their weight-bearing capabilities, via the weight bearing difference (WBD) test, and their gripping capabilities, via the grip force test, each as described below. Thus, in the assessment for osteoarthritis pain relief through gripping capability determinations, the 24 hour time point was the start of the next day when drug-in-vehicle was again orally administered (24 hours after the prior administration) for certain dosages. On days 2, 3, and 4, gripping capability response was determined 3 and 24 hours thereafter.
# The grip force (GF) of the hind legs was assessed using a Animal Grip Strength System (San Diego Instruments, San Diego, Calif.). Rats were gently restrained and allowed to grasp the wire mesh strain gauge with their hind legs. The animals were then moved in a rostral-caudal direction until they let go of the gauge. The force (in g) at which the rat let go was recorded. Each animal was tested twice at approximately 3-10 minute intervals at each time point and the average of the two readings was used for the GF in data analysis.
# Grip force, normalized to account for the weight of each animal, was expressed as “GF/B”, i.e., the ratio of GF to body weight, where GF is the grip force in grams and B is the body weight of the animal in kg. The “% GFR”, i.e., the percentage reversal of the (normalized) grip force impediment occurring post-MIA injection, was determined for each dosage at each time point using the following formula:
# [formula] where (GF/B)Drug is the GF/B determined at each post-oral-administration time-point for each dose of each substance administered to MIA-injected animals, (GF/B)Vehicle is the GF/B determined at each post-oral-administration time-point for the vehicle control administered to MIA-injected animals, and (GF/B)Control Rat is the GF/B determined for control rats (saline-injected animals receiving orally-administered vehicle only). With the exception of the controls (i.e., celecoxib, vehicle) where the student's t-test was used, Dunnett's test was conducted for the % GFR. In either instance, values with p <0.05 were considered to be statistically significant.
structure (smiles),measurement,setting,value
CC1CN(c2ncc(C(O)CO)cc2F)CCN1C(=O)Nc1nc2cc(F)ccc2s1.O=C(O)C=CC(=O)O (stereo not drawn),% GFR [mean],"oral 0.3 mg/kg, 1 h (day 1)",12.8%
same,% GFR [mean],"oral 0.3 mg/kg, 3 h (day 1)",21.1* %
same,% GFR [mean],"oral 0.3 mg/kg, 3 h (day 1), listed as product prepared with Compound A155(a) and fumaric acid",21.1%
same,% GFR [mean],"oral 0.3 mg/kg, 5 h (day 1)",17.3* %
same,% GFR [mean],"oral 0.3 mg/kg, 7 h (day 1)",3.7%
same,% GFR [mean],"oral 0.3 mg/kg, 24 h after day 1 dose (0 hrs day 2)",4.0%
same,% GFR [mean],"oral 1 mg/kg once daily, 3 h (day 2)",43.1** %
same,% GFR [mean],"oral 1 mg/kg once daily, 3 h (day 2), listed as product prepared with Compound A155(a) and fumaric acid",43.1%
same,% GFR [mean],"oral 1 mg/kg once daily, 3 h (day 3)",38.0** %
same,% GFR [mean],"oral 1 mg/kg once daily, 3 h (day 3), listed as product prepared with Compound A155(a) and fumaric acid",38.0%
same,% GFR [mean],"oral 1 mg/kg once daily, 3 h (day 4)",40.1** %
same,% GFR [mean],"oral 1 mg/kg once daily, 3 h (day 4), listed as product prepared with Compound A155(a) and fumaric acid",40.1%
same,% GFR [mean],"oral 1 mg/kg once daily, 24 h after day 2 dose (0 hrs day 3)",15.4** %
same,% GFR [mean],"oral 1 mg/kg once daily, 24 h after day 3 dose (0 hrs day 4)",26.1** %
same,% GFR [mean],"oral 1 mg/kg once daily, 24 h after day 4 dose (0 hrs day 5)",26.4** %
same,% GFR [mean],"oral 1 mg/kg, 1 h (day 1)",29.7** %
same,% GFR [mean],"oral 1 mg/kg, 3 h (day 1)",45.2** %
same,% GFR [mean],"oral 1 mg/kg, 3 h (day 1), listed as product prepared with Compound A155(a) and fumaric acid",45.2%
same,% GFR [mean],"oral 1 mg/kg, 5 h (day 1)",37.6** %
same,% GFR [mean],"oral 1 mg/kg, 7 h (day 1)",16.5* %
same,% GFR [mean],"oral 1 mg/kg, 24 h after day 1 dose (0 hrs day 2)",3.1%
same,% GFR [mean],"oral 3 mg/kg once daily, 3 h (day 2)",50.5** %
same,% GFR [mean],"oral 3 mg/kg once daily, 3 h (day 2), listed as product prepared with Compound A155(a) and fumaric acid",50.5%
same,% GFR [mean],"oral 3 mg/kg once daily, 3 h (day 3)",45.0** %
same,% GFR [mean],"oral 3 mg/kg once daily, 3 h (day 3), listed as product prepared with Compound A155(a) and fumaric acid",45.0%
same,% GFR [mean],"oral 3 mg/kg once daily, 3 h (day 4)",45.6** %
same,% GFR [mean],"oral 3 mg/kg once daily, 3 h (day 4), listed as product prepared with Compound A155(a) and fumaric acid",45.6%
same,% GFR [mean],"oral 3 mg/kg once daily, 24 h after day 2 dose (0 hrs day 3)",22.0** %
same,% GFR [mean],"oral 3 mg/kg once daily, 24 h after day 3 dose (0 hrs day 4)",32.0** %
same,% GFR [mean],"oral 3 mg/kg once daily, 24 h after day 4 dose (0 hrs day 5)",28.9** %
same,% GFR [mean],"oral 3 mg/kg, 1 h (day 1)",36.5** %
same,% GFR [mean],"oral 3 mg/kg, 3 h (day 1)",53.6** %
same,% GFR [mean],"oral 3 mg/kg, 3 h (day 1), listed as product prepared with Compound A155(a) and fumaric acid",53.6%
same,% GFR [mean],"oral 3 mg/kg, 5 h (day 1)",44.3** %
same,% GFR [mean],"oral 3 mg/kg, 7 h (day 1)",19.9** %
same,% GFR [mean],"oral 3 mg/kg, 24 h after day 1 dose (0 hrs day 2)",−2.2%
same,% GFR [mean],"oral 10 mg/kg once daily, 3 h (day 2)",57.5** %
same,% GFR [mean],"oral 10 mg/kg once daily, 3 h (day 2), listed as product prepared with Compound A155(a) and fumaric acid",57.5%
same,% GFR [mean],"oral 10 mg/kg once daily, 3 h (day 3)",51.6** %
same,% GFR [mean],"oral 10 mg/kg once daily, 3 h (day 3), listed as product prepared with Compound A155(a) and fumaric acid",51.6%
same,% GFR [mean],"oral 10 mg/kg once daily, 3 h (day 4)",52.2** %
same,% GFR [mean],"oral 10 mg/kg once daily, 3 h (day 4), listed as product prepared with Compound A155(a) and fumaric acid",52.2%
same,% GFR [mean],"oral 10 mg/kg once daily, 24 h after day 2 dose (0 hrs day 3)",32.7** %
same,% GFR [mean],"oral 10 mg/kg once daily, 24 h after day 3 dose (0 hrs day 4)",33.4** %
same,% GFR [mean],"oral 10 mg/kg once daily, 24 h after day 4 dose (0 hrs day 5)",32.0** %
same,% GFR [mean],"oral 10 mg/kg, 1 h (day 1)",35.9** %
same,% GFR [mean],"oral 10 mg/kg, 3 h (day 1)",55.6** %
same,% GFR [mean],"oral 10 mg/kg, 3 h (day 1), listed as product prepared with Compound A155(a) and fumaric acid",55.6%
same,% GFR [mean],"oral 10 mg/kg, 5 h (day 1)",45.9** %
same,% GFR [mean],"oral 10 mg/kg, 7 h (day 1)",22.8** %
same,% GFR [mean],"oral 10 mg/kg, 24 h after day 1 dose (0 hrs day 2)",−5.7%
same,% GFR [mean],"oral 20 mg/kg, 1 h (day 1)",49.0** %
same,% GFR [mean],"oral 20 mg/kg, 3 h (day 1)",65.1** %
same,% GFR [mean],"oral 20 mg/kg, 3 h (day 1), listed as product prepared with Compound A155(a) and fumaric acid",65.1%
same,% GFR [mean],"oral 20 mg/kg, 5 h (day 1)",50.3** %
same,% GFR [mean],"oral 20 mg/kg, 7 h (day 1)",29.3** %
same,% GFR [mean],"oral 20 mg/kg, 24 h after day 1 dose (0 hrs day 2)",−1.3%
